Data from ChEMBL document CHEMBL1201862, “PubChem BioAssay data set” (2004).
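Method: 48-hour compound exposure of cells in 96-well plates, five concentrations, linear interpolation of endpoints. GI50 is the concentration that inhibits growth by half.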 Activity calls are given as the source filed them. No stated cut-off is given here; in the data, active = GI50 up to about 1.1 µM and inactive = higher.

Experiments:
Assay in all cases: growth of human tumour cells (NCI), 48 h
SNB-19 = test system: SNB-19
SK-MEL-28 = test system: SK-MEL-28
IGROV-1 = test system: IGROV-1
UO-31 = test system: UO-31
OVCAR-5 = test system: OVCAR-5
CAKI-1 = test system: CAKI-1
EKVX = test system: EKVX
NCI-H23 = test system: NCI-H23
SF-268 = test system: SF-268
SR = test system: SR
HOP-92 = test system: HOP-92
SF-539 = test system: SF-539
K562 = test system: K562
HOP-62 = test system: HOP-62
HCT-15 = test system: HCT-15
NCI-H522 = test system: NCI-H522
UACC-257 = test system: UACC-257

| Structure (SMILES) | GI50 (SNB-19) | GI50 (SK-MEL-28) | GI50 (IGROV-1) | GI50 (UO-31) | GI50 (OVCAR-5) | GI50 (CAKI-1) | GI50 (EKVX) | GI50 (NCI-H23) | GI50 (SF-268) | GI50 (SR) | GI50 (HOP-92) | GI50 (SF-539) | GI50 (K562) | GI50 (HOP-62) | GI50 (HCT-15) [µM] | GI50 (NCI-H522) | GI50 (UACC-257) |
| --- | --- | --- | --- | --- | --- | --- | --- | --- | --- | --- | --- | --- | --- | --- | --- | --- | --- |
| CC(O[Si](C)(C)C)C1C=CC(C)n2c(=O)n(-c3ccccc3)c(=O)n21 (stereo unspecified) | > 100 µM (inactive) | > 100 µM (inactive) | > 100 µM (inactive) | > 100 µM (inactive) | > 100 µM (inactive) | > 100 µM (inactive) | > 100 µM (inactive) | > 100 µM (inactive) | < 0.01 µM (active) | > 100 µM (inactive) | < 0.01 µM (active) | > 100 µM (inactive) | > 100 µM (inactive) | > 100 µM (inactive) | > 100 | – | – |
| COC12OCCN(C)C1=CC(=O)C1(C)N=NCC12 (stereo unspecified) | – | > 100 µM (inactive) | > 100 µM (inactive) | > 100 µM (inactive) | – | > 100 µM (inactive) | > 100 µM (inactive) | > 100 µM (inactive) | – | – | > 100 µM (inactive) | > 100 µM (inactive) | > 100 µM (inactive) | – | > 100 | > 100 µM (inactive) | > 100 µM (inactive) |
| Cc1ccc(NC(=O)C2C(=O)N(c3ccc(C)c(C)c3)C(=O)/C2=N/O)cc1C (stereo unspecified) | > 100 µM (inactive) | > 100 µM (inactive) | > 100 µM (inactive) | > 100 µM (inactive) | > 100 µM (inactive) | > 100 µM (inactive) | > 100 µM (inactive) | > 100 µM (inactive) | > 100 µM (inactive) | – | > 100 µM (inactive) | > 100 µM (inactive) | > 100 µM (inactive) | > 100 µM (inactive) | > 100 | > 100 µM (inactive) | > 100 µM (inactive) |
| COC1(OC)C2(Cl)C(Cl)=C(Cl)C1(Cl)C1C2C2CC1(C(=O)O)c1ccccc12 (stereo unspecified) | 67.1 µM (inactive) | 19.4 µM (inactive) | 28.8 µM (inactive) | 21.9 µM (inactive) | > 10 µM (inactive) | 31.3 µM (inactive) | – | 14.3 µM (inactive) | 27.6 µM (inactive) | 9.55 µM (inactive) | 35.6 µM (inactive) | – | 15.9 µM (inactive) | 23.4 µM (inactive) | 23.8 | – | 14.6 µM (inactive) |
| C=C1c2[nH]c3c([N+](=O)[O-])c(OC)ccc3c2CCN1C(C)=O | > 100 µM (inactive) | > 100 µM (inactive) | > 100 µM (inactive) | > 100 µM (inactive) | > 100 µM (inactive) | 21.6 µM (inactive) | > 100 µM (inactive) | > 100 µM (inactive) | 28.7 µM (inactive) | > 100 µM (inactive) | – | > 100 µM (inactive) | > 100 µM (inactive) | > 100 µM (inactive) | > 100 | > 100 µM (inactive) | > 100 µM (inactive) |
| O=C1Cc2c([nH]c3ccccc23)-c2ccccc2N1 [PAULLONE] | 61.4 µM (inactive) | 48.8 µM (inactive) | 27.2 µM (inactive) | 27.2 µM (inactive) | 26.8 µM (inactive) | 42.4 µM (inactive) | 49.5 µM (inactive) | 16 µM (inactive) | 45.2 µM (inactive) | – | 62.5 µM (inactive) | 18.3 µM (inactive) | 19.5 µM (inactive) | 33.7 µM (inactive) | 30.9 | 17.3 µM (inactive) | 59.2 µM (inactive) |
| O=C(Cc1ccccc1)NN1C(=O)C(Cl)C1c1cccc([N+](=O)[O-])c1 (stereo unspecified) | > 92.9 µM (inactive) | > 92.9 µM (inactive) | 4.18 µM (inactive) | 31.7 µM (inactive) | > 79.1 µM (inactive) | 38.5 µM (inactive) | 34.8 µM (inactive) | 26.4 µM (inactive) | 44.7 µM (inactive) | 3.06 µM (inactive) | 14 µM (inactive) | 80 µM (inactive) | 21.3 µM (inactive) | > 100 µM (inactive) | 58.5 | 1.91 µM (inactive) | 36.6 µM (inactive) |
| Cc1cc2c(=O)cc(-c3cccs3)oc2c(C(=O)O)c1C | > 100 µM (inactive) | > 100 µM (inactive) | > 100 µM (inactive) | > 100 µM (inactive) | > 100 µM (inactive) | – | > 100 µM (inactive) | > 100 µM (inactive) | 34.2 µM (inactive) | – | > 100 µM (inactive) | > 10 µM (inactive) | 35.8 µM (inactive) | > 100 µM (inactive) | 42.8 | 21.2 µM (inactive) | > 100 µM (inactive) |
| COc1ccc(C2=NN(C(=O)COc3ccc(Cl)cc3)C(O)(c3ccc(Cl)cc3)C2)cc1 (stereo unspecified) | > 100 µM (inactive) | > 100 µM (inactive) | > 100 µM (inactive) | > 100 µM (inactive) | > 100 µM (inactive) | > 100 µM (inactive) | – | 36.1 µM (inactive) | > 100 µM (inactive) | – | > 100 µM (inactive) | > 100 µM (inactive) | > 100 µM (inactive) | > 100 µM (inactive) | > 100 | > 100 µM (inactive) | > 100 µM (inactive) |
